ChEMBL document CHEMBL5528067, “From Synergy to Monotherapy: Discovery of Novel 2,4,6-Trisubstituted Triazine Hydrazone Derivatives with Potent Antifungal Potency In Vitro and In Vivo” (J Med Chem, 2024)
In brackets after ≈: the same amount, converted by molar mass. Activity calls are given as the source filed them. The calls are words filed in the database; no cut-off is given here.

Tests used:
Candida albicans [1] = test: Filamentation inhibitory effect in Candida albicans SC5314 assessed as inhibition of hyphal formation using hyphal-inducing RPMI 1640 medium by measuring shorter hyphal at 2 to 8 microg/ml measured after 8 hrs by inverted imaging microscopy; assay type: functional, organism-based; conditions: dose 2-8 µg/ml
[2] = Volume of distribution at steady state in Sprague-Dawley rat at 2 mg/kg, iv measured upto 24 hrs by LC-MS/MS analysis; assay type: ADME, organism-based; conditions: in vivo, read-out: Vdss
Pichia kudriavzevii [3] = test: Antifungal activity against FCZ-resistant Candida krusei 4996 assessed as growth inhibition at 4 microg/ml measured at 24 hrs incubation by time growth assay; assay type: functional, organism-based; conditions: dose 4.0 µg/ml
Candida albicans [4] = test: Effect on sterol biosynthesis in Candida albicans SC5314 assessed as sterol component and content at 4 microg/ml measured after 8 hrs by GC-MS analysis; assay type: functional, organism-based; conditions: dose 4.0 µg/ml
[5] = Hemolytic activity in rabbit Red blood cell assessed as hemolysis rate at 64 microg/ml incubated for 1 hr; assay type: toxicity, cell-based, Oryctolagus cuniculus, Erythrocyte; conditions: red blood cells, at 64 µg/mL, read-out: Activity
[6] = AUC (0 to infinity) in Sprague-Dawley rat at 2 mg/kg, iv measured upto 24 hrs by LC-MS/MS analysis; assay type: ADME, organism-based; conditions: in vivo
Candida albicans [7] = test: Upregulation of BCR1 gene expression in Candida albicans SC5314 assessed as fold increase at 4 microg/ml by real time RT-PCR analysis relative to control; assay type: functional; conditions: dose 4.0 µg/ml
Candida albicans [8] = test: Effect on of BRG1 gene expression in Candida albicans SC5314 at 4 to 8 microg/ml by real time RT-PCR analysis; assay type: functional; conditions: dose 4-8 µg/ml
Candida albicans [9] = test: Upregulation of EFG1 gene expression in Candida albicans SC5314 assessed as fold increase at 4 microg/ml by real time RT-PCR analysis relative to control; assay type: functional; conditions: dose 4.0 µg/ml
[10] = Cytotoxicity against human HUVEC cells assessed as cell viability measured after 24 hrs by CCK-8 assay; assay type: toxicity, cell-based
Candida albicans [11] = test: Effect on HWP1 gene expression in Candida albicans SC5314 at 4 to 8 microg/ml by real time RT-PCR analysis; assay type: functional; conditions: dose 4-8 µg/ml
[12] = Cytotoxicity against human HUVEC cells assessed as cell viability at 16 microg/ml measured after 24 hrs by CCK-8 assay relative to control; assay type: toxicity, cell-based; conditions: at 16 µg/mL, read-out: Activity
Candida albicans [13] = test: Upregulation of SAP2 gene expression in Candida albicans SC5314 assessed as fold increase at 4 microg/ml by real time RT-PCR analysis relative to control; assay type: functional; conditions: dose 4.0 µg/ml
Candida albicans [14] = test: Antifungal activity against FCZ-resistant Candida albicans SC5314 assessed as growth inhibition measured after 48 hrs incubation by CLSI based micro-dilution broth method; assay type: functional
Candida albicans [15] = test: Suppression of SAP6 gene expression in Candida albicans SC5314 assessed as fold increase at 8 microg/ml by real time RT-PCR analysis relative to control; assay type: functional; conditions: dose 8.0 µg/ml
Candida albicans [16] = test: Filamentation inhibitory effect in Candida albicans SC5314 assessed as inhibition of hyphal formation using hyphal-inducing RPMI 1640 medium at 2 to 8 microg/ml measured after 3 hrs by inverted imaging microscopy; assay type: functional, organism-based; conditions: dose 2-8 µg/ml
[17] = MRT (0 to t) in Sprague-Dawley rat at 2 mg/kg, iv measured upto 24 hrs by LC-MS/MS analysis; assay type: ADME, organism-based; conditions: in vivo
Candida albicans [18] = test: Suppression of SAP2 gene expression in Candida albicans SC5314 assessed as fold increase at 8 microg/ml by real time RT-PCR analysis relative to control; assay type: functional; conditions: dose 8.0 µg/ml
Candida albicans [19] = test: Antifungal activity against FCZ-resistant Candida albicans strain 904 assessed as growth inhibition measured after 48 hrs incubation by CLSI based micro-dilution broth method; assay type: functional
[20] = Metabolic stability in mouse liver microsomes assessed as half life measured upto 60 mins by LC-MS/MS analysis; assay type: ADME, Microsome
Pichia kudriavzevii [21] = test: Antifungal activity against Candida krusei 4996 assessed as growth inhibition measured after 48 hrs incubation by CLSI based micro-dilution broth method; assay type: functional
Candida albicans [22] = test: Induction of cell wall component change in Candida albicans SC5314 assessed as change in chitin content by measuring […] fluorescence intensity at 4 microg/ml measured after 12 hrs by confocal laser-scanning microscopy; assay type: functional, organism-based; conditions: dose 4.0 µg/ml
Candida albicans [23] = test: Induction of cell wall component change in Candida albicans SC5314 assessed as thinner mannan layer at 4 microg/ml measured after 12 hrs by transmission electron microscopy; assay type: functional, organism-based; conditions: dose 4.0 µg/ml
[24] = Metabolic stability in mouse liver microsomes assessed as intrinsic clearance measured per mg of protein upto 60 mins by LC-MS/MS analysis; assay type: ADME, Microsome; conditions: read-out: CLH
Candida albicans [25] = test: Effect on of UME6 gene expression in Candida albicans SC5314 at 4 to 8 microg/ml by real time RT-PCR analysis; assay type: functional; conditions: dose 4-8 µg/ml
Candida albicans [26] = test: Antibiofilm activity against Candida albicans SC5314 assessed as inhibition of biofilm formation incubated for 24 hrs by XTT/menadione reduction assay; assay type: functional, organism-based; conditions: dose 1-64 µg/ml
Candida albicans [27] = test: Induction of cell wall component change in Candida albicans SC5314 assessed as swollen inner beta glucan layer at 4 microg/ml measured after 12 hrs by transmission electron microscopy; assay type: functional, organism-based; conditions: dose 4.0 µg/ml
Candida albicans [28] = test: Antibiofilm activity against Candida albicans SC5314 assessed as inhibition of biofilm formation at 64 microg/ml incubated for 24 hrs by XTT/menadione reduction assay relative to control; assay type: functional; design: scale not given: the % may be the effect or the level left; conditions: dose 64 µg/ml
Candida albicans [29] = test: Antibiofilm activity against Candida albicans SC5314 assessed as inhibition of biofilm formation at 32 microg/ml incubated for 24 hrs by XTT/menadione reduction assay relative to control; assay type: functional; design: scale not given: the % may be the effect or the level left; conditions: dose 32 µg/ml
Candida albicans [30] = test: Effect on ECE1 gene expression in Candida albicans SC5314 at 4 to 8 microg/ml by real time RT-PCR analysis; assay type: functional; conditions: dose 4-8 µg/ml
Candida albicans [31] = test: Synergistic antifungal activity against FCZ-resistant Candida albicans strain 901 assessed as fractional inhibitory concentration index measured after 48 hrs in presence of FCZ by CLSI based micro-dilution broth method; assay type: functional
Candida tropicalis = test: Antifungal activity against Candida tropicalis 8915 assessed as growth inhibition measured after 48 hrs incubation by CLSI based micro-dilution broth method; assay type: functional
Candida albicans [32] = test: Induction of cell wall component change in Candida albicans SC5314 assessed as irregular and shrunken cell membrane chitin structure at 4 microg/ml measured after 12 hrs by transmission electron microscopy; assay type: functional, organism-based; conditions: dose 4.0 µg/ml
Candida albicans [33] = test: Upregulation of SAP6 gene expression in Candida albicans SC5314 assessed as fold increase at 4 microg/ml by real time RT-PCR analysis relative to control; assay type: functional; conditions: dose 4.0 µg/ml
[34] = Clearance in Sprague-Dawley rat at 2 mg/kg, iv measured upto 24 hrs by LC-MS/MS analysis; assay type: ADME, organism-based; conditions: in vivo
Candida albicans [35] = test: In vivo antifungal activity against Candida albicans SC5314 infected in po dosed C57BL/6J mouse assessed as reduction in fungal burden in kidney treated once a day for 2 days; assay type: functional, organism-based; conditions: dose 5-10 mg/kg, time 2.0 day
Candida albicans [36] = test: Synergistic antifungal activity against FCZ-resistant Candida albicans strain 904 assessed as fractional inhibitory concentration index measured after 48 hrs in presence of FCZ by CLSI based micro-dilution broth method; assay type: functional
Candida albicans [37] = test: Antibiofilm activity against Candida albicans SC5314 assessed as biofilm disruption at 32 microg/ml incubated for 24 hrs by XTT/menadione reduction assay relative to control; assay type: functional; design: scale not given: the % may be the effect or the level left; conditions: dose 32 µg/ml
[38] = Half life in Sprague-Dawley rat at 2 mg/kg, iv measured upto 24 hrs by LC-MS/MS analysis; assay type: ADME, organism-based; conditions: in vivo

## O=[N+]([O-])c1ccc(O)c(/C=N/Nc2nc(NCc3ccc(F)cc3)nc(NCc3ccc(F)cc3)n2)c1
Candida albicans [1]
  Activity: Active
[2]
  Vd: 1.08 L/kg
Pichia kudriavzevii [3]
  Activity: Active
Candida albicans [4]
  Activity: inactive
[5]
  hemolysis at 1 h, 64 microg/ml: 4.92%
[6]
  AUC(0-inf): 1470 ng·h/mL
Candida albicans [7]
  fold change (FC): 1.9
Candida albicans [8]
  Activity: inactive
Candida albicans [9]
  fold change (FC): 2.56
[10]
  IC50 at 24 h: 41.4 µg/mL (≈ 81.7 µM)
Candida albicans [11]
  Activity: inactive
[12]
  viability at 24 h, 16 microg/ml: 75.5%
Candida albicans [13]
  fold change (FC): 1.86
Candida albicans [14]
  MIC80: 4 µg/mL (≈ 7.9 µM)
Candida albicans [15]
  fold change (FC): 2.99
Candida albicans [16]
  Activity: Active
[17]
  MRT last at 24 h: 45 min
Candida albicans [18]
  fold change (FC): 1.22
Candida albicans [19]
  MIC80: 1 µg/mL (≈ 1.97 µM)
[20]
  half-life: 55.8 min
Pichia kudriavzevii [21]
  MIC80: 1 µg/mL (≈ 1.97 µM)
Candida albicans [22]
  Activity: Active
Candida albicans [23]
  Activity: Active
[24]
  microsomal CLint: 24.9 µL/min/mg
Candida albicans [25]
  Activity: inactive
Candida albicans [26]
  Activity: Dose-Dependent Effect
Candida albicans [27]
  Activity: Active
Candida albicans [28]
  Activity: 70%
Candida albicans [29]
  Activity: 70%
Candida albicans [30]
  Activity: inactive
Candida albicans [31]
  fractional inhibitory concentration index (FICI): 0.25
Candida tropicalis
  MIC80: 2 µg/mL (≈ 3.95 µM)
Candida albicans [32]
  Activity: Active
Candida albicans [33]
  fold change (FC): 4.38
[34]
  clearance: 22.9 mL/min/kg
Candida albicans [35]
  Activity: Dose-Dependent Effect
Candida albicans [36]
  fractional inhibitory concentration index (FICI): 0.38
Candida albicans [37]
  Activity: <30%
[38]
  half-life: 76.8 min
